The source made the active and inactive calls. The calls are words filed in the database; no cut-off is given here.
Experiments:
Mus musculus [1] = assay: Sedative-hypnotic activity in mouse assessed as decrease in number of square crossing at 50 mg/kg, ip administrated as single dose and measured after 30 mins by open field test; assay type: functional, organism-based
Mus musculus [2] = assay: Upregulation of parathyroid hormone synthesis related genes in hypothalamus of mouse at 2.5 mg/kg, ip measured after 30 mins by KEGG enrichment analysis relative to control; assay type: functional; conditions: 0.5 h
[3] = Ratio of drug concentration in male mouse brain to plasma at 10 mg/kg, ip measured after 4 hrs by LC-MS/MS analysis; assay type: ADME, organism-based; conditions: brain and plasma, read-out: BPR
[4] = Upregulation of Rap1 signaling pathway related genes in hypothalamus of mouse at 2.5 mg/kg, ip measured after 30 mins by KEGG enrichment analysis relative to control; assay type: functional; conditions: 0.5 h
[5] = Upregulation of cGMP-PKG signaling pathway related genes in hypothalamus of mouse at 2.5 mg/kg, ip measured after 30 mins by KEGG enrichment analysis relative to control; assay type: functional; conditions: 0.5 h
[6] = Tmax in male Sprague-Dawley rat at 2.5 mg/kg, ip measured after 5 to 1440 mins by LC-MS/MS analysis; assay type: ADME, organism-based; conditions: in vivo, time 5-1440 min
[7] = Tmax in male Sprague-Dawley rat at 0.5 mg/kg, iv measured after 2 to 720 mins by LC-MS/MS analysis; assay type: ADME, organism-based; conditions: in vivo, time 2-720 min
[8] = Ratio of drug concentration in male mouse brain to plasma at 10 mg/kg, ip measured after 2 hrs by LC-MS/MS analysis; assay type: ADME, organism-based; conditions: brain and plasma, read-out: BPR
[9] = Upregulation of MAPK signaling pathway related genes in hypothalamus of mouse at 2.5 mg/kg, ip measured after 30 mins by KEGG enrichment analysis relative to control; assay type: functional; conditions: 0.5 h
[10] = Upregulation of human T-cell leukemia virus 1 infection related genes in hypothalamus of mouse at 2.5 mg/kg, ip measured after 30 mins by KEGG enrichment analysis relative to control; assay type: functional; conditions: 0.5 h
Mus musculus [11] = assay: Upregulation of amphetamine addiction related genes in hypothalamus of mouse at 2.5 mg/kg, ip measured after 30 mins by KEGG enrichment analysis relative to control; assay type: functional; conditions: 0.5 h
[12] = Drug concentration in male mouse brain at 10 mg/kg, ip measured after 2 hrs by LC-MS/MS analysis; assay type: ADME, organism-based; conditions: read-out: Ct
[13] = AUC (0 to t) in male Sprague-Dawley rat at 2.5 mg/kg, ip measured after 5 to 1440 mins by LC-MS/MS analysis; assay type: ADME, organism-based; conditions: in vivo, time 5-1440 min
Mus musculus [14] = assay: Upregulation of oxytocin signaling pathway related genes in hypothalamus of mouse at 2.5 mg/kg, ip measured after 30 mins by KEGG enrichment analysis relative to control; assay type: functional; conditions: 0.5 h
Mus musculus [15] = assay: Upregulation of threonine metabolism related genes in hypothalamus of mouse at 2.5 mg/kg, ip measured after 30 mins by KEGG enrichment analysis relative to control; assay type: functional; conditions: 0.5 h
Mus musculus [16] = assay: In vivo activation of cAMP/PKA/CREB signaling pathway in mouse assessed as increase in cAMP level in hypothalamus at 2.5 mg/kg, ip measured after 30 mins by ELISA analysis; assay type: functional, organism-based
Mus musculus [17] = assay: Upregulation of cell cycle related genes in hypothalamus of mouse at 2.5 mg/kg, ip measured after 30 mins by KEGG enrichment analysis relative to control; assay type: functional; conditions: 0.5 h
Mus musculus [18] = assay: Sedative-hypnotic activity in pentobarbital-induced mouse assessed as decrease in sleep latency at 0.5 to 2.5 mg/kg, ip administrated as single dose; assay type: functional, organism-based; conditions: dose 0.5-2.5 mg/kg
Mus musculus [19] = assay: Sedative-hypnotic activity in mouse assessed as decrease in number of square crossing at 2.5 mg/kg, ip administrated as single dose and measured within 3 mins by open field test; assay type: functional, organism-based
[20] = Drug concentration in male mouse brain at 10 mg/kg, ip measured after 1 hrs by LC-MS/MS analysis; assay type: ADME, organism-based; conditions: read-out: Ct
[21] = Upregulation of herpes simplex virus 1 infection related genes in hypothalamus of mouse at 2.5 mg/kg, ip measured after 30 mins by KEGG enrichment analysis relative to control; assay type: functional; conditions: 0.5 h
[22] = Clearance in male Sprague-Dawley rat at 0.5 mg/kg, iv measured after 2 to 720 mins by LC-MS/MS analysis; assay type: ADME, organism-based; conditions: in vivo, time 2-720 min
Mus musculus [23] = assay: Sedative-hypnotic activity in pentobarbital-induced mouse assessed as asleep rate at 0.5 to 2.5 mg/kg, ip preadministered with compound for 20 mins followed by pentobarbital administration and measured within 15 mins (reference value: 12.5 %); assay type: functional; conditions: dose 0.5-2.5 mg/kg, time <= 35 min
[24] = Upregulation of human papillomavirus infection related genes in hypothalamus of mouse at 2.5 mg/kg, ip measured after 30 mins by KEGG enrichment analysis relative to control; assay type: functional; conditions: 0.5 h
[25] = Half life in male Sprague-Dawley rat at 0.5 mg/kg, iv measured after 2 to 720 mins by LC-MS/MS analysis; assay type: ADME, organism-based; conditions: in vivo, time 2-720 min
[26] = Upregulation of cAMP signaling pathway related genes in hypothalamus of mouse at 2.5 mg/kg, ip measured after 30 mins by KEGG enrichment analysis relative to control; assay type: functional; conditions: 0.5 h
Mus musculus [27] = assay: Upregulation of parathyroid hormone secretion related genes in hypothalamus of mouse at 2.5 mg/kg, ip measured after 30 mins by KEGG enrichment analysis relative to control; assay type: functional; conditions: 0.5 h
Mus musculus [28] = assay: Sedative-hypnotic activity in pentobarbital-induced mouse assessed as increase in sleep duration at 2.5 mg/kg, ip administrated as single dose; assay type: functional, organism-based
Mus musculus [29] = assay: In vivo activation of cAMP/PKA/CREB signaling pathway in mouse assessed as increase in PKA expression in hypothalamus at 2.5 mg/kg, ip measured after 30 mins by Western blot analysis; assay type: functional, organism-based
Mus musculus [30] = assay: Sedative-hypnotic activity in mouse assessed as increase in latency time of first step out of center square at 0.1 to 2.5 mg/kg, ip administrated as single dose and measured after 30 mins by open field test; assay type: functional, organism-based; conditions: dose 0.1-2.5 mg/kg
Mus musculus [31] = assay: Sedative-hypnotic activity in mouse assessed as decrease in number of square crossing at 0.1 to 0.5 mg/kg, ip administrated as single dose and measured within 3 mins by open field test; assay type: functional, organism-based; conditions: dose 0.1-0.5 mg/kg
[32] = Clearance in male Sprague-Dawley rat at 2.5 mg/kg, ip measured after 5 to 1440 mins by LC-MS/MS analysis; assay type: ADME, organism-based; conditions: in vivo, time 5-1440 min
Mus musculus [33] = assay: Sedative-hypnotic activity in mouse assessed as decrease in grip strength score at 0.1 to 2.5 mg/kg, ip administrated as single dose and measured after 30 mins by grip strength test; assay type: functional, organism-based; conditions: dose 0.1-2.5 mg/kg
Mus musculus [34] = assay: Sedative-hypnotic activity in mouse assessed as reduction in grip strength score at 50 mg/kg, ip administrated as single dose and measured after 30 mins by grip strength test; assay type: functional, organism-based
Mus musculus [35] = assay: In vivo activation of cAMP/PKA/CREB signaling pathway in mouse assessed as increase in CREB phosphorylation in hypothalamus at 2.5 mg/kg, ip measured after 30 mins by Western blot analysis; assay type: functional, organism-based
Mus musculus [36] = assay: Upregulation of calcium signaling pathway related genes in hypothalamus of mouse at 2.5 mg/kg, ip measured after 30 mins by KEGG enrichment analysis relative to control; assay type: functional; conditions: 0.5 h

CCn1c2ccccc2c2cc(Nc3ccnc(Nc4ccc(C)c(OC)c4)n3)ccc21
Activity (Mus musculus [1]): Active | Activity (Mus musculus [2]): 4.05% | Kp at 4 h [3]: 0.31 | Activity [4]: 3.47% | Activity [5]: 2.89% | Tmax [6]: 4 h | Tmax [7]: 1.8 min | Kp at 2 h [8]: 0.38 | Activity [9]: 6.36% | Activity [10]: 4.62% | Activity (Mus musculus [11]): 3.47% | concentration at 2 h [12]: 23 ng/mL | AUC(0-t) [13]: 3180 ng·h/mL | Activity (Mus musculus [14]): 5.2% | Activity (Mus musculus [15]): 1.73% | Activity (Mus musculus [16]): Active | Activity (Mus musculus [17]): 2.89% | Activity (Mus musculus [18]): Active | Activity (Mus musculus [19]): Active | concentration at 1 h [20]: 15 ng/mL | Activity [21]: 5.78% | clearance [22]: 9.53 mL/min/kg | Activity (Mus musculus [23]): 100% | Activity [24]: 6.36% | half-life [25]: 3.54 h | Activity [26]: 4.62% | Activity (Mus musculus [27]): 4.05% | Activity (Mus musculus [28]): Active | Activity (Mus musculus [29]): Active | Activity (Mus musculus [30]): Active | Activity (Mus musculus [31]): Active; No Significant Difference Compared With Control Mouse | CL/F [32]: 12.7 mL/min/kg | Activity (Mus musculus [33]): Active | Activity (Mus musculus [34]): Active | Activity (Mus musculus [35]): Active | Activity (Mus musculus [36]): 4.62%
